The results in this text go back to patent US11718592B2, “Oxadiazole derivative” (Sumitomo Pharma Co., Ltd., priority 2020, dated 2023).

One series deals with Slc: ddy male mice. The note with it: mouse, in vivo, po, 100 mg/kg, 1 h.
A further series has as its system GABA(A) receptors. The series is described as follows: Evaluation of the potentiating effect on GABA(A) receptors (electrophysiology, GABA(A) receptor expressing cells). The class given is cell-based. The note with it: for The potentiating effect on GABA(A) receptors EC20: concentration giving 20% increase of the current generated by 2 μM GABA. How it is done: Using GABA(A) receptor expressing cells prepared according to Guideline for Generation of Stable Cell Lines (website of Lonza Japan; Non-patent Literature 4), the present test is done for evaluating the potentiating effect of a drug on GABA(A) receptors based on the electric current raised by GABA. The GABA(A) receptor expressing cells were used in electrophysiological study, wherein the electric current was measured when 2 μM GABA solution and then a mixture of 2 μM GABA and the test compound were added to the cells. […] In addition, the electric current generated by a mixture of 2 μM GABA solution and the test compound with 10 μM flumazenil was measured, and the inhibition rate for the electric current by adding flumazenil was calculated compared to the electric current obtained in the absence of flumazenil.

Molecules are shown by their SMILES. Some results are limits rather than exact numbers.

In the case of `CC(C)(C(N)=O)c1nc(-c2ccc(F)cc2)no1` [Example 1, 2-[3-(4-Fluorophenyl)-1,2,4-oxadiazol-5-yl]-2-methylpropanamide], the “average of the five mice's walking time” value in the series on Slc: ddy male mice came to 180 s. Besides, in the series with GABA(A) receptors, the “The potentiating effect on GABA(A) receptors EC20” value came to 55 µM.

For `NC(=O)C1(c2nc(-c3ccc(F)cc3)no2)CC1` [Example 4, 1-[3-(4-fluorophenyl)-1,2,4-oxadiazol-5-yl]cyclopropane-1-carboxamide], the “average of the five mice's walking time” value in the series on Slc: ddy male mice was determined as 180 s. Moreover, the “The potentiating effect on GABA(A) receptors EC20” value with GABA(A) receptors was >100 µM.

As to `NC(=O)C1(c2nc(-c3ccc(Cl)cc3)no2)CC1` [Example 5, 1-[3-(4-chlorophenyl)-1,2,4-oxadiazol-5-yl]cyclopropane-1-carboxamide], the “average of the five mice's walking time” value in the series on Slc: ddy male mice came out at 180 s. In addition, the “The potentiating effect on GABA(A) receptors EC20” value in the series with GABA(A) receptors is >300 µM.

Take `NC(=O)C1(c2nc(-c3ccc(Cl)cc3)no2)CC(F)C1` (stereo not drawn) [Example 6, 1-[3-(4-chlorophenyl)-1,2,4-oxadiazol-5-yl]-3-fluorocyclobutane-1-carboxamide]: the “average of the five mice's walking time” value in the series on Slc: ddy male mice was 180 s. The “The potentiating effect on GABA(A) receptors EC20” value in the series on GABA(A) receptors stood at 3.3 µM.

In the case of `NC(=O)C1(c2nc(-c3ccc(Cl)cc3)no2)CC(F)(F)C1` [Example 7, 1-[3-(4-chlorophenyl)-1,2,4-oxadiazol-5-yl]-3,3-difluorocyclobutane-1-carboxamide], the “average of the five mice's walking time” value in the series with Slc: ddy male mice was found to be 180 s. The “The potentiating effect on GABA(A) receptors EC20” value in the series on GABA(A) receptors was 5.4 µM.

Consider `NC(=O)C1(c2nc(-c3ccc(Cl)cc3)no2)CCC1` [Example 8, 1-[3-(4-chlorophenyl)-1,2,4-oxadiazol-5-yl]cyclobutane-1-carboxamide], for which the “average of the five mice's walking time” value in the series on Slc: ddy male mice was 180 s. Moreover, in the series on GABA(A) receptors, the “The potentiating effect on GABA(A) receptors EC20” value stood at 3.2 µM.

With `NC(=O)C1(c2nc(-c3ccc(Cl)cc3)no2)CCCC1` [Example 9, 1-[3-(4-chlorophenyl)-1,2,4-oxadiazol-5-yl]cyclopentane-1-carboxamide], the “average of the five mice's walking time” value with Slc: ddy male mice was found to be 180 s. The “The potentiating effect on GABA(A) receptors EC20” value with GABA(A) receptors was 2.7 µM.

With `NC(=O)C1(c2nc(-c3ccc(F)cc3)no2)CCOCC1` [Example 10, 4-[3-(4-fluorophenyl)-1,2,4-oxadiazol-5-yl]tetrahydro-2H-pyran-4-carboxamide], the “average of the five mice's walking time” value in the series on Slc: ddy male mice came to 180 s. Moreover, the “The potentiating effect on GABA(A) receptors EC20” value in the series on GABA(A) receptors was 247 µM.

Take `CC(C)(C(N)=O)c1noc(-c2ccc(F)cc2)n1` [Example 12, 2-[5-(4-fluorophenyl)-1,2,4-oxadiazol-3-yl]-2-methylpropanamide]: the “average of the five mice's walking time” value in the series on Slc: ddy male mice stood at 180 s. For the same compound, the “The potentiating effect on GABA(A) receptors EC20” value in the series on GABA(A) receptors is 234 µM.

Consider `CC(C)(C(N)=O)c1noc(-c2ccc(Br)cc2)n1` [Example 14, 2-[5-(4-bromophenyl)-1,2,4-oxadiazol-3-yl]-2-methylpropanamide], for which, in the series on Slc: ddy male mice, the “average of the five mice's walking time” value is 180 s. Besides, the “The potentiating effect on GABA(A) receptors EC20” value with GABA(A) receptors was 32 µM.

As to `CC(C)(C(N)=O)c1nnc(-c2ccc(Cl)cc2)o1` [Example 15, 2-[5-(4-chlorophenyl)-1,3,4-oxadiazol-2-yl]-2-methylpropanamide], the “average of the five mice's walking time” value in the series with Slc: ddy male mice is 180 s. In addition, the “The potentiating effect on GABA(A) receptors EC20” value in the series on GABA(A) receptors is >300 µM.

On to `CC(C)(c1nc(-c2ccc(F)cc2)no1)S(N)(=O)=O` [Example 17, 2-[3-(4-Fluorophenyl)-1,2,4-oxadiazol-5-yl]propane-2-sulfonamide], for which the “average of the five mice's walking time” value in the series on Slc: ddy male mice was 180 s. Further, the “The potentiating effect on GABA(A) receptors EC20” value in the series on GABA(A) receptors is 45 µM.

`CN1C(=O)CC(=O)N(c2ccccc2)c2cc(Cl)ccc21` [clobazam, reference compound]: the “Inhibition rate to the increased electric current by adding flumazenil” value with GABA(A) receptors (2 μM GABA and test compound with 10 μM flumazenil) is reported as 88%. For the same compound, the “The potentiating effect on GABA(A) receptors EC20” value in the series on GABA(A) receptors stood at 0.34 µM. The “inhibition of the potentiating effect on GABA(A) receptors with flumazenil (in words)” value in the series with GABA(A) receptors (flumazenil, benzodiazepine antagonist) is “strongly inhibited”.
